Read-outs that look alike come from different tables or passages of the source.
Test: PK after subcutaneous administration of solutions in dogs
Assay type: in vivo, Beagle dog
Settings: dog, plasma, sc, dog, mean ± SD, n=3; for concentration at 56 d: read-out: C56d
Experimental: Formulations containing the compound of Formula (Ia) were prepared as aqueous solutions or oral formulations and administered subcutaneously to rats, dogs, cynomolgus monkey, and/or rhesus monkey.
A solution of the compound of Formula (Ia) in 10% ethanol, 13% water, and 77% PEG 200 (400 mg/mL) was prepared. The solution was administered subcutaneously to dogs at a dose of 12 mg/kg and rats at a dose of 50 mg/kg and the pharmacokinetic (PK) profile was determined. […] In both species, plasma concentrations of the compound of Formula (Ia) were maintained above the target trough concentration of 20 nM (corresponding to an IQ of 5) for at least 84 days (12 weeks).
A solution of the compound of Formula (Ia) in 15% water and 85.0 PEG 300 (400 mg/mL) was prepared. The solution was administered subcutaneously to male beagle dogs at a dose level of 12 mg/kg and dose volume of […] and the pharmacokinetic (PK) profile was determined.
A solution of the compound of Formula (a) sodium salt in water and 300 (300 mg/mL) was prepared that contained 22.6% water/50% PEG 300/1.1% NaOH/26.3% Formula (Ia). The solution was administered subcutaneously to male beagle dogs at a dose level of 12 mg/kg and dose volume of […] and the pharmacokinetic (PK) profile was determined.
A 300 mg/ml solution of a compound of Formula (Ia) having 9.8 w/w % water, 65.0 w/w % PEG 300, and 25.2 w/w % of the compound of Formula (Ia) was prepared. The solution was administered subcutaneously to rats at a dose of 50 mg/kg and to dogs at a dose of 12 mg/kg and the pharmacokinetic (PK) profile was determined. […] In the rat, plasma concentrations of the compound of Formula (Ia) were maintained above the target trough concentration of 20 nM for at least 168 days (24 weeks). In the dog, plasma concentrations of the compound of Formula (Ia) were maintained above the target trough concentration of 20 nM for at least 84 days (12 weeks).
(§1) A 150 mg/ml solution of a compound of Formula (Ia) having 27.92 w/w % water, 58.04 w/w % PEG 300, 13.47 w/w % of a compound of Formula (Ia), and 1.1 w/w % NaOH was prepared. The solution was administered subcutaneously to rats at a dose of 50 mg/kg and to dogs at a dose of 12 mg/kg and the pharmacokinetic (PK) profile was determined. […] In the rat, plasma concentrations of the compound of Formula (Ia) were maintained above the target trough concentration of 20 nM for at least 126 days (18 weeks). In the dog, plasma concentrations of the compound of Formula (Ia) were maintained above the target trough concentration of 20 nM for at least 56 days (8 weeks).
as §1, with “300” for “150”, “23.2” for “27.92”, “50.0” for “58.04”, “25.7” for “13.47”
A 50 mg/ml solution of a compound of Formula (Ia) having 30.07 w/w % water, 64.40 w/w % PEG 300, 4.68 w/w % of a sodium salt of the compound of Formula (Ia), and 0.85 w/w % poloxamer 188 was prepared. The solution was administered subcutaneously to rats at a dose of 50 mg/kg and to dogs at a dose of 6 mg/kg and the pharmacokinetic (PK) profile was determined. […] In the rat, plasma concentrations of the compound of Formula (Ia) were maintained above the target trough concentration of 20 nM for at least 28 days (4 weeks). In the dog, plasma concentrations of the compound of Formula (Ia) were maintained above the target trough concentration of 20 nM for at least 14 days (2 weeks). […]

[1] = Beagle, 6 mg/kg, SC 6 mg/kg, 150 mg/mL solution (w/w %: 26.6 water, 56.97 PEG 300, 13.39 Formula (Ia), 0.57 NaOH, 2.49 poloxamer 188)
[2] = beagle, 6 mg/kg, SC 6 mg/kg, 300 mg/mL solution (w/w %: 21.97 water, 47.05 PEG 300, 25.21 Formula (Ia), 1.08 NaOH, 4.69 poloxamer 188)
[3] = beagle, 12 mg/kg, SC 12 mg/kg, 150 mg/mL solution (w/w %: 27.92 water, 58.04 PEG 300, 13.47 Formula (Ia), 1.1 NaOH)
[4] = beagle, 12 mg/kg, SC 12 mg/kg, 300 mg/mL solution (w/w %: 9.8 water, 65.0 PEG 300, 25.2 Formula (Ia))
[5] = beagle, 12 mg/kg, SC 12 mg/kg, 300 mg/mL solution (w/w %: 23.2 water, 50.0 PEG 300, 25.7 Formula (Ia), 1.1 NaOH)

SMILES: CC(C)(C#Cc1ccc(-c2ccc(Cl)c3c(NS(C)(=O)=O)nn(CC(F)(F)F)c23)c([C@H](Cc2cc(F)cc(F)c2)NC(=O)Cn2nc(C(F)(F)F)c3c2C(F)(F)[C@@H]2C[C@H]32)n1)S(C)(=O)=O [Formula (Ia), N—((S)-1-(3-(4-chloro-3-(methylsulfonamido)-1-(2,2,2-trifluoroethyl)-1H-indazol-7-yl)-6-(3-methyl-3-(methylsulfonyl)but-1-yn-1-yl)pyridin-2-yl)-2-(3,5-difluorophenyl)ethyl)-2-((3bS,4aR)-5,5-difluoro-3-(trifluoromethyl)-3b,4,4a,5-tetrahydro-1H-cyclopropa[3,4]cyclopenta[1,2-c]pyrazol-1-yl)acetamide]
- AUC(0-t) (Beagle, 6 mg/kg, SC 6 mg/kg, 100 mg/mL solution (w/w %: 28.36 water, 60.73 PEG 300, 9.23 sodium salt of Formula (Ia), 1.68 poloxamer 188), read-out: AUC0-24h): 6.05 ± 3.43 µM·h
- AUC(0-t) (Beagle, 6 mg/kg, SC 6 mg/kg, 125 mg/mL solution (w/w %: 27.51 water, 58.92 PEG 300, 11.48 sodium salt of Formula (Ia), 2.09 poloxamer 188), read-out: AUC0-24h): 4.71 ± 1.51 µM·h
- AUC(0-t) (Beagle, 6 mg/kg, SC 6 mg/kg, 125 mg/mL solution (w/w %: 27.51 water, 58.92 PEG 300, 11.48 sodium salt of Formula (Ia), 2.09 poloxamer 188), read-out: AUC0-14d): 90.3 ± 3.5 µM·h
- Cmax [1]: 101 ± 44 nM
- Tmax [1]: 10 ± 15.6 days
- AUC(0-t) (Beagle, 6 mg/kg, SC 6 mg/kg, 150 mg/mL solution (w/w %: 26.6 water, 56.97 PEG 300, 13.39 Formula (Ia), 0.57 NaOH, 2.49 poloxamer 188), read-out: AUC0-56d): 69 ± 13.9 µM·h
- AUC(0-t) (Beagle, 6 mg/kg, SC 6 mg/kg, 150 mg/mL solution (w/w %: 26.6 water, 56.97 PEG 300, 13.39 Formula (Ia), 0.57 NaOH, 2.49 poloxamer 188), read-out: AUC0-84d): 76.6 ± 8.5 µM·h
- concentration at 56 d [1]: 24.9 nM
- AUC(0-t) (beagle, 6 mg/kg, SC 6 mg/kg, 50 mg/mL solution (w/w %: 30.07 water, 64.40 PEG 300, 4.68 sodium salt of Formula (Ia), 0.85 poloxamer 188), read-out: AUC0-24h): 14.7 ± 4.4 µM·h
- concentration at 14 d (beagle, 6 mg/kg, SC 6 mg/kg, 50 mg/mL solution (w/w %: 30.07 water, 64.40 PEG 300, 4.68 sodium salt of Formula (Ia), 0.85 poloxamer 188), read-out: C14d): 37.2 ± 13.9 nM
- AUC(0-t) (beagle, 6 mg/kg, SC 6 mg/kg, 75 mg/mL solution (w/w %: 29.21 water, 62.55 PEG 300, 6.97 sodium salt of Formula (Ia), 1.68 poloxamer 188), read-out: AUC0-24h): 5.88 ± 1.95 µM·h
- AUC(0-t) (beagle, 6 mg/kg, SC 6 mg/kg, 75 mg/mL solution (w/w %: 29.21 water, 62.55 PEG 300, 6.97 sodium salt of Formula (Ia), 1.68 poloxamer 188), read-out: AUC0-28d): 101 ± 11 µM·h
- concentration at 21 d (beagle, 6 mg/kg, SC 6 mg/kg, 75 mg/mL solution (w/w %: 29.21 water, 62.55 PEG 300, 6.97 sodium salt of Formula (Ia), 1.68 poloxamer 188), read-out: C21d): 40 ± 24 nM
- Cmax [2]: 69 ± 22 nM
- AUC(0-t) (beagle, 6 mg/kg, SC 6 mg/kg, 300 mg/mL solution (w/w %: 21.97 water, 47.05 PEG 300, 25.21 Formula (Ia), 1.08 NaOH, 4.69 poloxamer 188), read-out: AUC0-56d): 55.4 ± 20.8 µM·h
- concentration at 56 d [2]: 30.4 ± 7.2 nM
- Cmax [3]: 312 ± 93 nM
- Tmax [3]: 16.3 ± 4.04 days
- concentration at 56 d [3]: 22.9 ± 5.6 nM
- Cmax [4]: 133 ± 10 nM
- Tmax [4]: 14 days
- AUC(0-t) (beagle, 12 mg/kg, SC 12 mg/kg, 300 mg/mL solution (w/w %: 9.8 water, 65.0 PEG 300, 25.2 Formula (Ia)), read-out: AUC0-126d): 139 ± 8 µM·h
- concentration at 84 d (beagle, 12 mg/kg, SC 12 mg/kg, 300 mg/mL solution (w/w %: 9.8 water, 65.0 PEG 300, 25.2 Formula (Ia)), read-out: C84d): 21.7 ± 6.5 nM
- Cmax [5]: 267 ± 176 nM
- Tmax [5]: 12.3 ± 9.62 days
- AUC(0-t) (beagle, 12 mg/kg, SC 12 mg/kg, 300 mg/mL solution (w/w %: 23.2 water, 50.0 PEG 300, 25.7 Formula (Ia), 1.1 NaOH), read-out: AUC0-56d): 166 ± 110 µM·h
- concentration at 56 d [5]: 29.6 ± 30.8 nM
- AUC(0-t) (beagle, 12 mg/kg, SC 12 mg/kg, 400 mg/mL solution in 10% ethanol, 13% water, 77% PEG 200, read-out: AUC0-84d): 89.6 ± 10.1 µM·h

Source: patent US12594267B2, “Capsid inhibitors for the treatment of HIV” (Gilead Sciences, Inc., priority 2018, dated 2026)
